Test results reported in patent US20230382886A1, “CONJUGATED TLR7 AND NOD2 AGONISTS” (UNIVERZA V LJUBLJANI, priority 2020, published 2023).

Key:
MEC-1 cancer cell line = experiment: PBMC cytotoxicity assay against MEC-1 target cells; format: cell-based; settings: 1 μM; control medium; FIG. 1
Protocol: (§1) The TLR7 and NOD2 conjugated compounds of the invention were tested for their ability to activate the cytotoxic activity of peripheral blood mononuclear cells (PBMCs) towards cancer cell lines. The main effector fraction of PBMCs in this assay are natural killer (NK) cells, which play an essential role in the innate immune system through their direct cytotoxic activity against aberrant cells, especially tumour cells and virally infected cells. The flow cytometry-based method described hereafter measures the PBMC cytotoxic activity against target cancer cell lines by co-incubating PBMCs and cancer cells, which were pre-labelled by carboxyfluorescein succinimidyl ester (CFSE) to distinguish them from effector cells. Successful activation of effector cells by the tested compounds leads to higher degree of cell death in the target cell population.
(§2) Chronic myelogenous leukaemia K562 and chronic B cell leukaemia MEC-1 cell lines were used as target cells in the assay. Both cell lines were pre-cultured for at least 10 days before the assay was performed. Immediately prior to the addition of target cells to PBMCs, target cells were stained with CFSE at 2 μM for 15 minutes at 37° C. in the dark. Cells were then washed with medium and resuspended at 200.000 cells/mL.
(§3) PBMCs were isolated from whole blood by centrifugation with the Ficoll-Paque density gradient solution. After centrifugation, PBMCs were washed twice with PBS and resuspended in medium at 4.000.000 cells/mL. To perform the assay, PBMCs were seeded on 96 well microtiter plates at 400.000 cells per well and cultured in duplicates at 37° C. for 20 h in the presence of the compounds.
(§4) The compounds were prepared as follows: First, stock solutions of the conjugated compounds were prepared in DMSO at a 1 mM concentration. […]
(§5) After incubating the PBMCs in the presence of compounds, 10.000 CFSE stained target cells were added to each well for a final 40:1 ratio of effector cells versus target cells. After 4 h of co-incubation, cells were stained with the SYTOXTM Blue (Invitrogen) nucleic acid stain and analysed with flow cytometry. […]

K562 cancer cell line = experiment: PBMC cytotoxicity assay against K562 target cells; format: cell-based; settings: 1 μM; control medium; FIG. 2
Protocol: as §1, §2, §3, §4, §5

[1] = system: CD4 positive T-lymphocytes; experiment: Antigen presentation of BMDCs to CD4+ T-lymphocytes; format: cell-based, mouse; settings: for ability to promote BMDC antigen presentation to CD4 positive T-lymphocytes (ratio of CD25 positive T-lymphocytes with low CFSE fluorescence): 100 nM, ovalbumin, FIG. 3; for dose dependence of BMDC antigen presentation to CD4 positive T-lymphocytes: 1 nM to 1 μM, FIG. 5
Protocol: (§6) The effect of the conjugated compounds of the invention on antigen presentation of mouse bone marrow derived dendritic cells (BMDCs) to T-lymphocytes was examined.
(§7) BMDCs were obtained by harvesting bone marrow from mouse hind legs. The harvested cells were then cultured for 10 days in the presence of granulocyte-macrophage colony-stimulating factor
(§8) (GM-CSF) to ensure differentiation into dendritic cells. BMDCs were seeded on 96 well microtiter plates at 10.000 cells per well and stimulated in duplicates with conjugated compounds and ovalbumin (50 μg/mL) at 37° C. for 20 h. After this period, the supernatants were removed and either CD4+ T-Iymphocytes or CD8+ T-Iymphocytes were added.
(§9) The compounds were prepared as follows: First, stock solutions of the conjugated compounds were prepared in DMSO at a 1 mM concentration. The working dilutions of the conjugated compounds in medium were then added directly to BMDCs to ensure final concentrations ranging from 1 nM to 1 μM.
(§10) CD4+ and CD8+ T-lymphocytes were obtained from single-cell suspensions of spleens from OT-II and OT-I transgenic mice, respectively. These express a T-cell receptor that pairs with the CD4 or CD8 co-receptors and is specific for the ovalbumin antigen. After harvesting the spleen, CD4+ or CD8+ cell fractions were enriched with MACS separation technology (Miltenyi Biotec CD4+ T Cell Isolation Kit or CD8+ T Cell Isolation Kit, respectively). T-lymphocytes were then stained with CFSE and added to BMDCs at 50.000 cells per well.
(§11) After co-culturing the BMDCs and T-lymphocytes for 72 hours at 37° C., T-lymphocyte activation was assessed with flow cytometry by measuring the expression of CD25, characteristic for activated T-lymphocytes. Concurrently, the intensity of CFSE fluorescence was measured to evaluate T-lymphocyte proliferation. […] SG48, SG144 and RH32 were the tested conjugated compounds of the invention. Medium was used as a negative control. LPS (1 μg/mL) was used as the positive control. Intermediary compound SG8 was employed as a known NOD2 agonist of the desmuramylpeptide type (Gobec et al. 2018). Intermediary compound SG43 was employed as a known TLR7 agonist of the purine type (Akinbobuyi et al. 2016). The combination of SG8 and SG43 was employed to compare the activity of conjugated compounds against an unconjugated mixture of NOD2 and TLR7 agonists.

[2] = system: CD8 positive T-lymphocytes; experiment: Antigen presentation of BMDCs to CD8+ T-lymphocytes; format: cell-based, mouse; settings: for ability to promote BMDC antigen presentation to CD8 positive T-lymphocytes (ratio of CD25 positive T-lymphocytes with low CFSE fluorescence): 100 nM, ovalbumin, FIG. 4; for dose dependence of BMDC antigen presentation to CD8 positive T-lymphocytes: 1 nM to 1 μM, FIG. 6
Protocol: as §6, §7, §8, §9, §10, §11

| SMILES | ability to activate the cytotoxic activity of PBMCs against the MEC-1 cancer cell line (ratio against the control) (MEC-1 cancer cell line) | ability to activate the cytotoxic activity of PBMCs against the K562 cancer cell line (ratio against the control) (K562 cancer cell line) | ability to promote BMDC antigen presentation to CD4 positive T-lymphocytes (ratio of CD25 positive T-lymphocytes with low CFSE fluorescence) [1] | ability to promote BMDC antigen presentation to CD8 positive T-lymphocytes (ratio of CD25 positive T-lymphocytes with low CFSE fluorescence) [2] | dose dependence of BMDC antigen presentation to CD4 positive T-lymphocytes [1] | dose dependence of BMDC antigen presentation to CD8 positive T-lymphocytes [2] |
| --- | --- | --- | --- | --- | --- | --- |
| CCCCOc1nc(N)c2nc(O)n(Cc3ccc(C(=O)NCCOCCOCCNC(=O)CC[C@@H](NC(=O)[C@@H](NC(=O)CNC(=O)/C=C/c4ccc(O)c(OC)c4)C(C)C)C(=O)OCC)cc3)c2n1 [RH32] | activate the cytotoxic activity of PBMCs | activate the cytotoxic activity of PBMCs | promote BMDC antigen presentation | promote BMDC antigen presentation | – | – |
| CCCCOc1nc(N)c2nc(O)n(Cc3ccc(C(=O)NCCCCCC(=O)Oc4ccc(/C=C/C(=O)NCC(=O)N[C@H](C(=O)N[C@H](CCC(=O)OCC)C(=O)OCC)C(C)C)cc4OC)cc3)c2n1 [SG48, Diethyl ((E)-3-(4-((6-(4-((6-amino-2-butoxy-8-hydroxy-9H-purin-9-yl)methyl)benzamido)hexanoyl)-oxy)-3-methoxyphenyl)acryloyl)glycyl-L-yalyl-D-glutamate] | activate the cytotoxic activity of PBMCs | activate the cytotoxic activity of PBMCs | promote BMDC antigen presentation | promote BMDC antigen presentation | dose-dependent | dose-dependent |
| CCCCOc1nc(N)c2nc(O)n(Cc3ccc(C(=O)NCCOCCNC(=O)CC[C@@H](NC(=O)[C@@H](NC(=O)CNC(=O)/C=C/c4ccc(O)c(OC)c4)C(C)C)C(=O)OCC)cc3)c2n1 [SG144, Ethyl N5-(2-(2-(4-((6-amino-2-butoxy-8-hydroxy-9H-purin-9-yl)methyl)benzamido)ethoxy)ethyl)-N2-((E)-3-(4-hydroxy-3-methoxyphenyl)acryloyl)glycyl-L-yalyl-D-glutaminate] | activate the cytotoxic activity of PBMCs | activate the cytotoxic activity of PBMCs | promote BMDC antigen presentation | promote BMDC antigen presentation | dose-dependent | dose-dependent |
